These compounds were tested on A549 (assay: Growth inhibition of human A549/ATCC cells assessed as cell growth at 1 uM incubated for 48 hrs by sulforhodamine B assay relative to control). Details: A549, 48 h, read-out: Activity.
Assay type: functional

O=C(Nc1cccc(-n2cc(-c3ccncc3)c(-c3cc(O)cc(Cl)c3)n2)c1)c1ccc(N2CCOCC2)c(C(F)(F)F)c1 was tested. Which growth at 1 µM did it give?
The growth at 1 µM was 52%.

The compounds below were run on IGROV-1 (assay: Growth inhibition of human IGROV1 cells assessed as cell growth at 0.01 uM incubated for 48 hrs by sulforhodamine B assay relative to control). Details: IGROV-1, 48 h, read-out: Activity.
Assay type: functional

With O=C(Nc1cccc(-n2cc(-c3ccncc3)c(-c3cc(O)cc(Cl)c3)n2)c1)c1ccc(N2CCOCC2)c(C(F)(F)F)c1 as the compound, how does the growth at 0.01 µM read?
Its growth at 0.01 µM is 93%.

Each compound was assayed on SK-MEL-2 (assay: Growth inhibition of human SK-MEL-2 cells assessed as cell growth at 1 uM incubated for 48 hrs by sulforhodamine B assay relative to control). Details: SK-MEL-2, 48 h, read-out: Activity.
Assay type: functional

O=C(Nc1cccc(-n2cc(-c3ccncc3)c(-c3cc(O)cc(Cl)c3)n2)c1)c1ccc(N2CCOCC2)c(C(F)(F)F)c1 was tested. Which growth at 1 µM did it give?
The growth at 1 µM was 77%.

These compounds were tested on CAKI-1 (assay: Growth inhibition of human Caki1 cells assessed as cell growth at 1 uM incubated for 48 hrs by sulforhodamine B assay relative to control). Details: CAKI-1, 48 h, read-out: Activity.
Assay type: functional

O=C(Nc1cccc(-n2cc(-c3ccncc3)c(-c3cc(O)cc(Cl)c3)n2)c1)c1ccc(N2CCOCC2)c(C(F)(F)F)c1 was tested. Which growth at 1 µM did it give?
Its growth at 1 µM is 53%.

These compounds were tested on HCT-116 (assay: Growth inhibition of human HCT116 cells assessed as cell growth at 0.01 uM incubated for 48 hrs by sulforhodamine B assay relative to control). Details: HCT-116, 48 h, read-out: Activity.
Assay type: functional

With O=C(Nc1cccc(-n2cc(-c3ccncc3)c(-c3cc(O)cc(Cl)c3)n2)c1)c1ccc(N2CCOCC2)c(C(F)(F)F)c1 as the compound, how does the growth at 0.01 µM read?
Its growth at 0.01 µM is 102%.

What follows are compounds tested on NCI-H460 (assay: Growth inhibition of human NCI-H460 cells assessed as cell growth at 1 uM incubated for 48 hrs by sulforhodamine B assay relative to control). Details: NCI-H460, 48 h, read-out: Activity.
Assay type: functional

How did the growth at 1 µM turn out when O=C(Nc1cccc(-n2cc(-c3ccncc3)c(-c3cc(O)cc(Cl)c3)n2)c1)c1ccc(N2CCOCC2)c(C(F)(F)F)c1 was run?
The growth at 1 µM was 44%.

These compounds were tested on NCI/ADR-RES (assay: Growth inhibition of human NCI/ADR-RES cells assessed as cell growth at 0.01 uM incubated for 48 hrs by sulforhodamine B assay relative to control). Details: read-out: Activity.
Assay type: functional

How did the growth at 0.01 µM turn out when O=C(Nc1cccc(-n2cc(-c3ccncc3)c(-c3cc(O)cc(Cl)c3)n2)c1)c1ccc(N2CCOCC2)c(C(F)(F)F)c1 was run?
The growth at 0.01 µM was 101%.

The compounds below were run on PC-3 (assay: Growth inhibition of human PC3 cells assessed as cell growth at 1 uM incubated for 48 hrs by sulforhodamine B assay relative to control). Details: PC-3, 48 h, read-out: Activity.
Assay type: functional

Which growth at 1 µM does the source give for O=C(Nc1cccc(-n2cc(-c3ccncc3)c(-c3cc(O)cc(Cl)c3)n2)c1)c1ccc(N2CCOCC2)c(C(F)(F)F)c1 here?
Its growth at 1 µM is 51%.

Each compound was assayed on SK-OV-3 (assay: Growth inhibition of human SKOV3 cells assessed as cell growth at 100 uM incubated for 48 hrs by sulforhodamine B assay relative to control). Details: SK-OV-3, 48 h, read-out: Activity.
Assay type: functional

For O=C(Nc1cccc(-n2cc(-c3ccncc3)c(-c3cc(O)cc(Cl)c3)n2)c1)c1ccc(N2CCOCC2)c(C(F)(F)F)c1, which growth at 100 µM is on record?
The growth at 100 µM was 19%.

These compounds were tested on UACC-257 (assay: Growth inhibition of human UACC257 cells assessed as cell growth at 0.01 uM incubated for 48 hrs by sulforhodamine B assay relative to control). Details: UACC-257, 48 h, read-out: Activity.
Assay type: functional

Which growth at 0.01 µM does the source give for O=C(Nc1cccc(-n2cc(-c3ccncc3)c(-c3cc(O)cc(Cl)c3)n2)c1)c1ccc(N2CCOCC2)c(C(F)(F)F)c1 here?
The growth at 0.01 µM was 91%.

The compounds below were run on MDA-MB-435 (assay: Growth inhibition of human MDA-MB-435 cells incubated for 48 hrs by sulforhodamine B assay). Details: MDA-MB-435, 48 h, read-out: GI50.
Assay type: functional, cell-based

Which GI50 does the source give for O=C(Nc1cccc(-n2cc(-c3ccncc3)c(-c3cc(O)cc(Cl)c3)n2)c1)c1ccc(N2CCOCC2)c(C(F)(F)F)c1 here?
The GI50 was 2 µM.

Same assay, conditions: MDA-MB-435, 48 h, read-out: LC50

With O=C(Nc1cccc(-n2cc(-c3ccncc3)c(-c3cc(O)cc(Cl)c3)n2)c1)c1ccc(N2CCOCC2)c(C(F)(F)F)c1 as the compound, how does the LC50 read?
The LC50 was over 100 µM.

Same assay, conditions: MDA-MB-435, 48 h, read-out: TGI

O=C(Nc1cccc(-n2cc(-c3ccncc3)c(-c3cc(O)cc(Cl)c3)n2)c1)c1ccc(N2CCOCC2)c(C(F)(F)F)c1 was tested. Which TGI did it give?
The TGI was over 100 µM.

Same assay, conditions: MDA-MB-435, 48 h, read-out: pGI50 (converted)

How did the GI50 turn out when O=C(Nc1cccc(-n2cc(-c3ccncc3)c(-c3cc(O)cc(Cl)c3)n2)c1)c1ccc(N2CCOCC2)c(C(F)(F)F)c1 was run?
The GI50 was 2.04 µM.

Same assay, conditions: MDA-MB-435, 48 h, read-out: pLC50 (converted)

With O=C(Nc1cccc(-n2cc(-c3ccncc3)c(-c3cc(O)cc(Cl)c3)n2)c1)c1ccc(N2CCOCC2)c(C(F)(F)F)c1 as the compound, how does the LC50 read?
The LC50 was over 100 µM.

Same assay, conditions: MDA-MB-435, 48 h, read-out: pTGI (converted)

For O=C(Nc1cccc(-n2cc(-c3ccncc3)c(-c3cc(O)cc(Cl)c3)n2)c1)c1ccc(N2CCOCC2)c(C(F)(F)F)c1, which TGI is on record?
Its TGI is over 100 µM.

The compounds below were run on NCI/ADR-RES (assay: Growth inhibition of human NCI/ADR-RES cells assessed as cell growth at 100 uM incubated for 48 hrs by sulforhodamine B assay relative to control). Details: read-out: Activity.
Assay type: functional

With O=C(Nc1cccc(-n2cc(-c3ccncc3)c(-c3cc(O)cc(Cl)c3)n2)c1)c1ccc(N2CCOCC2)c(C(F)(F)F)c1 as the compound, how does the growth at 100 µM read?
The growth at 100 µM was 25%.

These compounds were tested on SK-MEL-28 (assay: Growth inhibition of human SK-MEL-28 cells assessed as cell growth at 1 uM incubated for 48 hrs by sulforhodamine B assay relative to control). Details: SK-MEL-28, 48 h, read-out: Activity.
Assay type: functional

With O=C(Nc1cccc(-n2cc(-c3ccncc3)c(-c3cc(O)cc(Cl)c3)n2)c1)c1ccc(N2CCOCC2)c(C(F)(F)F)c1 as the compound, how does the growth at 1 µM read?
Its growth at 1 µM is 44%.

Each compound was assayed on SN12C (assay: Growth inhibition of human SN12C cells assessed as cell growth at 100 uM incubated for 48 hrs by sulforhodamine B assay relative to control). Details: read-out: Activity.
Assay type: functional

How did the growth at 100 µM turn out when O=C(Nc1cccc(-n2cc(-c3ccncc3)c(-c3cc(O)cc(Cl)c3)n2)c1)c1ccc(N2CCOCC2)c(C(F)(F)F)c1 was run?
Its growth at 100 µM is 38%.

What follows are compounds tested on SW-620 (assay: Growth inhibition of human SW620 cells assessed as cell growth at 0.01 uM incubated for 48 hrs by sulforhodamine B assay relative to control). Details: SW-620, 48 h, read-out: Activity.
Assay type: functional

With O=C(Nc1cccc(-n2cc(-c3ccncc3)c(-c3cc(O)cc(Cl)c3)n2)c1)c1ccc(N2CCOCC2)c(C(F)(F)F)c1 as the compound, how does the growth at 0.01 µM read?
Its growth at 0.01 µM is 103%.

Each compound was assayed on A498 (assay: Growth inhibition of human A498 cells assessed as cell growth at 100 uM incubated for 48 hrs by sulforhodamine B assay relative to control). Details: A498, 48 h, read-out: Activity.
Assay type: functional

Which growth at 100 µM does the source give for O=C(Nc1cccc(-n2cc(-c3ccncc3)c(-c3cc(O)cc(Cl)c3)n2)c1)c1ccc(N2CCOCC2)c(C(F)(F)F)c1 here?
Its growth at 100 µM is -12%.

What follows are compounds tested on CCRF-CEM (assay: Growth inhibition of human CCRF-CEM cells assessed as cell growth at 0.1 uM incubated for 48 hrs by sulforhodamine B assay relative to control). Details: read-out: Activity.
Assay type: functional

For O=C(Nc1cccc(-n2cc(-c3ccncc3)c(-c3cc(O)cc(Cl)c3)n2)c1)c1ccc(N2CCOCC2)c(C(F)(F)F)c1, which growth at 0.1 µM is on record?
The growth at 0.1 µM was 95%.

Each compound was assayed on LOX IMVI (assay: Growth inhibition of human LOXIMVI cells assessed as cell growth at 1 uM incubated for 48 hrs by sulforhodamine B assay relative to control). Details: read-out: Activity.
Assay type: functional

How did the growth at 1 µM turn out when O=C(Nc1cccc(-n2cc(-c3ccncc3)c(-c3cc(O)cc(Cl)c3)n2)c1)c1ccc(N2CCOCC2)c(C(F)(F)F)c1 was run?
Its growth at 1 µM is 51%.

These compounds were tested on A498 (assay: Growth inhibition of human A498 cells assessed as cell growth at 0.1 uM incubated for 48 hrs by sulforhodamine B assay relative to control). Details: A498, 48 h, read-out: Activity.
Assay type: functional

Which growth at 0.1 µM does the source give for O=C(Nc1cccc(-n2cc(-c3ccncc3)c(-c3cc(O)cc(Cl)c3)n2)c1)c1ccc(N2CCOCC2)c(C(F)(F)F)c1 here?
Its growth at 0.1 µM is 85%.
